Results reported in paper PMC9714921 (PLOS Pathogens, 2022).
Values joined by “and” are separate entries in the source; they are usually repeats but may differ in a detail not shown here. Equal values may be shown once. Read-outs that look alike come from different tables or passages of the source.

Experiments:
[1] = tested on: Tzc-ACR-16-REM; assay: Voltage-clamp electrophysiology, coding-sequence modified ACR-16 in oocytes; type: cell-based, T. callipaeda; details: B. malayi ric-3 co-injected; agonist not named in the legend (ACh by the matching native values)
Procedure: (§1) B. malayi acr-16 and accessory proteins ric-3, unc-50, unc-74 and molo-1 were cloned from adult female B. malayi cDNA received as a gift from Dr. T. Geary using the primers described in S1 Table. B. malayi eat-18 was prepared from two overlapping oligonucleotide primers. Other subunits were synthesized from their predicted genome sequence (Gene Universal, USA) (S2 Table). […] All sequences were cloned into the pTD2 oocyte expression vector. Asu-ACR-16 and Tzc-ACR-16 chimeras were constructed using appropriate restriction enzymes, reciprocal exchange through ligation and confirmed by sequencing (McLab, USA).
(§2) cRNA for oocyte injection was prepared with the mMESSAGE mMACHINE T7 kit following manufacturers protocol (Ambion, USA). Concentration was determined using a Nanodrop spectrophotometer. Desired subunit combinations with associated accessory proteins were mixed and diluted with nuclease-free water to a final concentration of 250 ng/uL for each construct.
(§3) Adult female X. laevis oocyte extraction was performed in accordance with the McGill University Animal Use Protocol 2015–7758 following standard protocol. […] All electrophysiology was conducted two days post-injection, except for the expression analysis assay in which oocytes were measured every day after injection for three consecutive days. […]

[2] = target: Asu-ACR-16-bmaICL chimera (Ascaris suum; Brugia malayi, UniProt A0A4E9FSR7+F1KYJ9); type: cell-based, A. suum (B. malayi ICL); details: listed as acetylcholine
Procedure: as §1, §2
(§4) Adult female X. laevis oocyte extraction was performed in accordance with the McGill University Animal Use Protocol 2015–7758 following standard protocol. Briefly, frog ovary lobes were placed in a Ca^2+-free OR2 solution (82 mM NaCl, 2 mM KCl, 1 mM MgCl2, 5 mM HEPES buffer, pH 7.3) and manually divided into clusters of <10 oocytes with thin tweezers followed by a 90-minute incubation in 10 mg/mL collagenase type II (Sigma-Aldrich, USA). Oocytes were washed in Ca^2+-free OR2 and placed ND96 solution (NaCl 96 mM, KCl 2 mM, CaCl2 1.8 mM, MgCl2 1 mM and HEPES 5 mM, pH 7.3) supplemented with sodium pyruvate 2.5 mM [86] and incubated at 18°C until cRNA injection. Oocytes were injected with 50 nL (12.5 ng of each injected gene) of the desired cRNA subunit and accessory protein combination mix with the NanojectII (Drummond Scientific, USA). Following injection, oocytes were incubated in ND96 buffer at 18°C until electrophysiology. All electrophysiology was conducted two days post-injection, except for the expression analysis assay in which oocytes were measured every day after injection for three consecutive days.
All drugs were dissolved in recording solution (NaCl 100 mM, KCl 2.5 mM, CaCl2 1 mM, HEPES 5 mM, pH 7.3) to a stock concentration of 10 mM and diluted to their final recording concentrations. […]
Oocytes were placed individually in an RC3Z chamber (Harvard Apparatus, USA) submerged in recording solution (NaCl 100 mM, KCl 2.5 mM, CaCl2 1 mM, HEPES 5 mM, pH 7.3). […] Ligand solutions were applied to the oocytes with an approximate flow rate of 1.2 m/s and current responses measured. […] Data was analyzed using Clampex 9.2 (Axon Instruments, USA) and statistical analysis and graphs produced in Prism (GraphPad version 9.1). […]

[3] = tested on: T. muris N-AChR; details: read-out: EC50 μM ACh; accessory protein Ric-3; ref [35]; cited from earlier work
[4] = tested on: ASU-TM (A. suum TM regions in Tzc-ACR-16); assay: Voltage-clamp electrophysiology, A. suum/T. callipaeda ACR-16 chimera in oocytes; type: cell-based; details: S2C Fig
Procedure: as §1, §2, §4
(§5) All drugs were dissolved in recording solution (NaCl 100 mM, KCl 2.5 mM, CaCl2 1 mM, HEPES 5 mM, pH 7.3) to a stock concentration of 10 mM and diluted to their final recording concentrations. Oxantel and bephenium were first dissolved in DMSO to ensure a final recording concentration contained less than 0.1% DMSO. For agonist profiling, all drugs were diluted to a concentration of 100 μM.
(§6) Oocytes were placed individually in an RC3Z chamber (Harvard Apparatus, USA) submerged in recording solution (NaCl 100 mM, KCl 2.5 mM, CaCl2 1 mM, HEPES 5 mM, pH 7.3). The RC3Z chamber was connected to a perfusion system containing recording solution and ligand solutions. Pulled glass capillaries (World Precision Instruments, USA) were filled with 3M KCl and the tips clipped and checked for appropriate resistance (between 0.5 and 5 MΩ). A 3M KCl agar bridge grounded the oocyte bath chamber. Measurements were made using an Axon Axoclamp 900A amplifier with Digidata1550M. […] Ligand solutions were applied to the oocytes with an approximate flow rate of 1.2 m/s and current responses measured. Oocytes were exposed to the ligand solution until a distinct current peak was observed followed by a wash with the recording solution until current returned to baseline for a minimum of 10 seconds until the next ligand exposure. For BAPTA-AM exposed oocytes, oocytes were incubated in 100 μM BAPTA-AM for four hours prior to electrophysiology recording. Data was analyzed using Clampex 9.2 (Axon Instruments, USA) and statistical analysis and graphs produced in Prism (GraphPad version 9.1). T-tests were used to compare responses with error bars representing standard error. For concentration-response curves, individual oocyte current response to the different ligand concentrations were normalized to the response obtained with 300 μM.

[5] = tested on: TZC-ECD (T. callipaeda ECD in Asu-ACR-16); assay: as above; type: cell-based; details: S2C Fig
Procedure: as §1, §2, §4, §5, §6

[6] = tested on: ASU-ICL (A. suum ICL in Tzc-ACR-16); assay: as above; type: cell-based; details: S2C Fig
Procedure: as §1, §2, §4, §5, §6

[7] = tested on: TZC-ICL (T. callipaeda ICL in Asu-ACR-16); assay: as above; type: cell-based; details: S2C Fig
Procedure: as §1, §2, §4, §5, §6

[8] = tested on: ASU-ECD (A. suum ECD in Tzc-ACR-16); assay: as above; type: cell-based; details: S2C Fig
Procedure: as §1, §2, §4, §5, §6

[9] = tested on: TZC-TM (Tzc-TM region in A. suum ACR-16); assay: as above; type: cell-based; details: S2C Fig
Procedure: as §1, §2, §4, §5, §6

[10] = tested on: N. americanus N-AChR; details: read-out: EC50 μM ACh; accessory protein Ric-3; ref [33]; cited from earlier work
[11] = tested on: Asu-ACR-16-REM; assay: Voltage-clamp electrophysiology, coding-sequence modified ACR-16 in oocytes; type: cell-based, A. suum; details: B. malayi ric-3 co-injected; agonist not named in the legend (ACh by the matching native values)
Procedure: as §1, §2, §3

[12] = target: Bma-ACR-16-asuICL chimera (Brugia malayi; Ascaris suum, UniProt A0A4E9FSR7+F1KYJ9); type: cell-based, B. malayi (A. suum ICL)
Procedure: as §1, §2, §4, §5, §6

[13] = tested on: T. suis N-AChR; details: read-out: EC50 μM ACh; accessory protein Ric-3; ref [34]; cited from earlier work
[14] = tested on: C. elegans N-AChR; parameters: method as in Charvet et al., 2018 [40]; details: read-out: EC50 μM ACh; accessory protein Ric-3; ref Charvet et al., 2018 [40]; cited from earlier work

Compound: CC(=O)OCC[N+](C)(C)C [ACh, acetylcholine]
- current response [1]: 587 ± 415 nA
- current response to 100 μM acetylcholine ([2]; No accessory protein): 22 ± 4 (n=14) nA
- current response to 100 μM acetylcholine ([2]; co-injected: Bma-ric-3 (reference condition)): 3021 ± 444 nA and 3021 ± 128 (n=12) nA
- current response to 100 μM acetylcholine ([2]; co-injected: Bma-ric-3 + Cel-nra-2): 2181 ± 99 (n=14) nA
- EC50 [3]: 31.1 ± 0.3 µM
- response to ACh [4]: 24 ± 8 nA
- response to ACh [5]: 42 ± 9 nA
- response to ACh [6]: 2237 ± 98 nA
- response to ACh [7]: 1959 ± 78 nA
- response to ACh [8]: 1819 ± 115 nA
- response to ACh [9]: 2917 ± 105 nA
- EC50 [10]: 170 ± 19.2 µM
- current response [11]: 2197 ± 383 nA
- current response to 100 μM acetylcholine ([12]; No accessory protein): 0 ± 0 (n=15) nA
- current response to 100 μM acetylcholine ([12]; co-injected: Bma-ric-3 (reference condition), listed as acetylcholine): 59 ±43 nA and 59 ± 12 (n=14) nA
- current response to 100 μM acetylcholine ([12]; co-injected: Bma-ric-3 + Bma-emc-6 + Cel-nra-2 + Cel-nra-4, listed as acetylcholine): 1 ± 2 nA and 1 ± 1 (n=11) nA
- current response to 100 μM acetylcholine ([12]; co-injected: Bma-ric-3 + Cel-emc-6): 37 ± 12 (n=15) ns nA
- current response to 100 μM acetylcholine ([12]; co-injected: Bma-ric-3 + Cel-nra-2 + Cel-nra-4, listed as acetylcholine): 47 ± 18 (n=14) ns nA
- current response to 100 μM acetylcholine ([12]; co-injected: Bma-ric-3 + Cel-nra-2, listed as acetylcholine): 256 ± 89 (n=11) nA
- EC50 [13]: 14.5 ± 1.03 µM
- EC50 [14]: 22 ± 1.2 µM
